# Results as given in US20250325571A1, “TREATMENT OF BINGE EATING DISORDER USING PSYCHEDELICS” (TRYP Therapeutics Inc., priority 2022, published 2025).
# Experiments:
# [1] = system: 2-deoxy-D-glucose-induced hyperphagia; conditions: rats; cited from earlier work
# [2] = cited from earlier work
# [3] = rats, cited from earlier work
# [4] = across species tested; cited from earlier work
# [5] = system: human subjects with a Binge eating disorder (BED); assay: Open-label clinical study of oral psilocybin with psychotherapy in BED: eating behavior, body and psychological indicators; assay type: in vivo; conditions: for BMI / Waist circumference / HADS Anxiety Score / HADS Depression Score / Acceptance and Action Questionnaire (AAQ-II) score / Patient Global Impression (PGI-I) score / Binge Eating Scale (BES) score: one subject; for Patient Global Impression (PGI-I) score: scale 1 (very much improved) to 7, baseline set at 4; for Binge Eating Scale (BES) score: BES ranges from 0 to 46
# [6] = system: human subjects with a Binge eating disorder (BED); assay: Safety evaluation in the clinical study (adverse events, vital signs); assay type: in vivo
# Method: Subjects were instructed to consume a low-fat breakfast at least one hour before reporting to the dosing session, where a single 25 mg oral dose of psilocybin was to be administered (Usona Institute). On dosing day, vital signs, for example, heart rate and BP, were assessed prior to administration of psilocybin and at 30, 60, 90, 120, 180, 240, 300, and 360 minutes post-administration. 12-lead ECGs were performed in triplicate pre-dosing and 60, 120, and 360 minutes after capsule administration. C-SSRS responses were reported prior to and following dosing. […] ACT-based clinical formulation continues as the therapist listens to emergent narratives and notes instances of psychological flexibility and inflexibility, especially present moment awareness, avoidance, and values.
# Session monitors were trained to provide support to subjects if they experience acute anxiety, agitation, paranoia, or panic. However, in the event of an AE, a physician was consulted. AEs include psychiatric emergency, hypertension, acute chest pain, and headache. An oral benzodiazepine, for example, lorazepam, was available for treatment of panic or anxiety. An oral antipsychotic, for example, risperidone, was available for treatment of psychosis or severe agitation. If a subject experienced hypertension, a BP of >200 mm Hg systolic or >110 mm Hg diastolic for more than 15 minutes from four consecutive readings, the subject was transferred to the emergency room whether or not they were symptomatic. Labetalol or similar drug was available for treatment of hypertension. If a subject developed new-onset chest pain, the subject was evaluated in-person by the study physician to determine whether the pain was cardiovascular or musculoskeletal, or reflects acute panic/anxiety. Vital signs and ECG were monitored and compared to baseline measurements for evidence of acute ischemia. […]
# Vital signs, such as BP and heart rate, were recorded at the dosing session, the day following dosing, and at Weeks 6, 10, and 14 (4, 8, and 12 weeks after the dosing session). […]
# Adverse events (AEs) were monitored throughout the study. […]
# tissue phosphatases = conditions: in vitro studies; cited from earlier work
# [7] = doses examined in clinical studies; cited from earlier work
# [8] = system: human subjects with a Binge eating disorder (BED); assay: Psychedelic experience questionnaires (CEQ, MEQ30) one day after dosing; conditions: one subject
# [9] = day 0 (day of administration of psilocybin, 25 mg oral)
# [10] = day 0, after dosing (25 mg oral)
# [11] = day 27 after single 25 mg oral dose with psychotherapy
# [12] = day −42 relative to dosing day (baseline, before psilocybin)
compound,measurement,setting,value
Clc1cccc(N2CCNCC2)c1 [m-chlorophenylpiperazine],Effect on 2-deoxy-D-glucose-induced hyperphagia,[1],inhibited
CN(C)CCc1c[nH]c2cccc(O)c12 [psilocin],Time until psilocin is detectable in plasma,[2]; after administration of the parent compound (oral psilocybin),≤ 20 min
same,Half-life in blood,[2]; in vivo,2 to 3 h
same,Time to maximum plasma levels,[3]; post-administration of oral psilocybin,approximately 90 minutes
same,Fraction of total psilocin absorbed from the digestive tract,[3]; psilocybin administered orally,approximately 50%
same,Brain regions with highest levels of psilocin,[4],"neocortex, hippocampus, and thalamus"
"CN(C)CCc1c[nH]c2cccc(OP(=O)(O)O)c12 [psilocybin, 3-[2-(dimethylamino)ethyl]-1H-indol-4-yl]dihydrogen phosphate]",Persistence of decrease in FBE after administration,[5]; 3 subjects for whom data was available,over 80 days
same,"Reduction of daily instances of feeling lost control over eating, 4 of 5 subjects","[5]; 4 of 5 subjects, four-week post-dosing measurement period",greater than 70%
same,"Reduction in daily binge eating episodes from baseline, 4 of 5 subjects","[5]; 4 of 5 subjects, four-week post-dosing measurement period, FIG. 3A",≥ 75%
same,"Reduction of daily instances of feeling lost control over eating, average (Eating Questionnaire Q2)","[5]; 5 subjects, four-week post-dosing measurement period, FIG. 3B",81.6%
same,Duration of effects on BED symptom improvement,[5]; after administration of a single dose,≥ 80 days
same,Persistence of decrease in FBE after administration,[5]; all 4 subjects for whom data was available,≥ 50 days
same,"Daily reduction in binge eating episodes from baseline, all subjects","[5]; all 5 subjects, four-week post-dosing measurement period",at least 60%
same,"Reduction of daily binge eating episodes from baseline, average (Eating Questionnaire Q1)","[5]; average across 5 subjects, four-week post-dosing measurement period, single 25 mg oral dose",80.4%
same,BMI,[5]; [9],43.5 kg/m^2
same,Waist circumference,[5]; [9],105.9 cm
same,HADS Anxiety Score,[5]; [10],6
same,HADS Depression Score,[5]; [10],6
same,HADS Anxiety Score,"[5]; day 0, before dosing",5
same,HADS Depression Score,"[5]; day 0, before dosing",5
same,Acceptance and Action Questionnaire (AAQ-II) score,[5]; day 13 after dosing,10
same,HADS Anxiety Score,[5]; day 13 after dosing,4
same,HADS Depression Score,[5]; day 13 after dosing,0
same,Patient Global Impression (PGI-I) score,[5]; day 13 after dosing,1
same,Acceptance and Action Questionnaire (AAQ-II) score,[5]; day 27 after dosing,10
same,HADS Anxiety Score,[5]; day 27 after dosing,2
same,HADS Depression Score,[5]; day 27 after dosing,1
same,Patient Global Impression (PGI-I) score,[5]; day 27 after dosing,1
same,BMI,[5]; [11],42.5 kg/m^2
same,Waist circumference,[5]; [11],104.4 cm
same,Binge Eating Scale (BES) score,[5]; day 27 after single 25 mg oral dose,5
same,Acceptance and Action Questionnaire (AAQ-II) score,[5]; day −42 (baseline),13
same,HADS Anxiety Score,[5]; day −42 (baseline),5
same,HADS Depression Score,[5]; day −42 (baseline),5
same,Binge Eating Scale (BES) score,[5]; day −42 (baseline),13
same,BMI,[5]; [12],42.9 kg/m^2
same,Waist circumference,[5]; [12],106.6 cm
same,Drug-related adverse events,"[6]; 5 subjects, four-week period following administration",No drug-related adverse events were reported
same,Changes in heart rate or blood pressure,"[6]; one subject, 25 mg oral dose",No substantial changes were observed
same,Adverse events,"[6]; one subject, during the administration or the integration sessions",No adverse events were observed
same,Bioavailability,[2]; oral,~50%
same,Most active metabolic organs for initial psilocybin metabolism,tissue phosphatases,kidneys as being among the most active metabolic organs
same,Tolerability,[7],well tolerated
same,Challenging Experience Questionnaire score: Death,[8]; CEQ ranges from 0.000 to 1.000,0
same,Challenging Experience Questionnaire score: Fear,[8]; CEQ ranges from 0.000 to 1.000,0.16
same,Challenging Experience Questionnaire score: Grief,[8]; CEQ ranges from 0.000 to 1.000,0
same,Challenging Experience Questionnaire score: Insanity,[8]; CEQ ranges from 0.000 to 1.000,0
same,Challenging Experience Questionnaire score: Isolation,[8]; CEQ ranges from 0.000 to 1.000,0
same,Challenging Experience Questionnaire score: Paranoia,[8]; CEQ ranges from 0.000 to 1.000,0
same,Challenging Experience Questionnaire score: Physical Distress,[8]; CEQ ranges from 0.000 to 1.000,0.24
same,Challenging Experience Questionnaire score: Total Score,[8]; CEQ ranges from 0.000 to 1.000,0.06
same,MEQ30 score: Ineffability,[8]; MEQ30 ranges from 0% to 100%,80%
same,MEQ30 score: Mystical,[8]; MEQ30 ranges from 0% to 100%,45.33%
same,MEQ30 score: Positive mood,[8]; MEQ30 ranges from 0% to 100%,93.33%
same,MEQ30 score: Total Score,[8]; MEQ30 ranges from 0% to 100%,58.67%
same,MEQ30 score: Transcendence of time and space,[8]; MEQ30 ranges from 0% to 100%,46.67%
